In series [1] the test system is Pseudomonas aeruginosa. The series can be described thus: Antibacterial activity against Pseudomonas aeruginosa ATCC 27883 incubated for 24 hrs by microtiter plate method. Type of series: functional.
Another series concerns Erythrocyte. Kind of series: Hemolytic activity in human RBC assessed as hemolysis incubated for 2 hrs by spectrophotometer analysis. Type of series: toxicity, cell-based. As to conditions: erythrocyte, 2 h.
Series [2] relates to Staphylococcus aureus. The series can be described thus: Antibacterial activity against methicillin resistant Staphylococcus aureus ATCC BAA-1556 incubated for 24 hrs by microtiter plate method. Type of series: functional.
Series [3] deals with Staphylococcus aureus. Kind of series: Antibacterial activity against Staphylococcus aureus ATCC 29213 incubated for 24 hrs by microtiter plate method. The format is functional.
Series [4] deals with Escherichia coli. The series can be described thus: Antibacterial activity against Escherichia coli ATCC 25922 incubated for 24 hrs by microtiter plate method. Type of series: functional. To be noted: 24 h.
Series [5] has as its system Staphylococcus aureus. The series can be described thus: Bactericidal activity against methicillin resistant Staphylococcus aureus ATCC BAA-1556 assessed as time required for complete reduction of bacterial growth at MIC by counting formed colonies. Type of series: functional.
Series [6] has as its system Staphylococcus aureus. The series can be described thus: Bactericidal activity against methicillin resistant Staphylococcus aureus ATCC BAA-1556 assessed as reduction of bacterial growth at 4 times MIC by counting formed colonies. As to conditions: time <= 4.0 hrs, TDE = time-dependent effect. Type of series: functional, organism-based.
A further series concerns Acinetobacter baumannii. Kind of series: Antibacterial activity against ciprofloxacin resistance Acinetobacter baumannii ATCC BAA1605 incubated for 24 hrs by microtiter plate method. Type of series: functional.
Series [7] has as its system Staphylococcus aureus. Kind of series: Antibacterial activity against methicillin resistant Staphylococcus aureus ATCC BAA-1556 after 24 hrs in presence of 2 mM of CaCl2 by microtiter plate method. The format is functional.
Series [8] has as its system Escherichia coli. The series can be described thus: Antibacterial activity against Escherichia coli ATCC 25922 after 24 hrs in presence of fetal bovine serum by microtiter plate method. Type of series: functional.
The test system of series [9] is Escherichia coli. The series can be described thus: Antibacterial activity against Escherichia coli ATCC 25922 after 24 hrs in presence of 150 mM NaCl by microtiter plate method. The format is functional.
The subject of series [10] is Staphylococcus aureus. Kind of series: Bactericidal activity against methicillin resistant Staphylococcus aureus ATCC BAA-1556 assessed as reduction of bacterial growth at MIC by counting formed colonies. Type of series: functional, organism-based. To be noted: time <= 4.0 hrs, TDE = time-dependent effect.
In series [11] the test system is Escherichia coli. The series can be described thus: Antibacterial activity against Escherichia coli ATCC 25922 after 24 hrs in presence of 2 mM CaCl2 at by microtiter plate method. Type of series: functional.
The subject of series [12] is Staphylococcus aureus. The series can be described thus: Antibacterial activity against methicillin resistant Staphylococcus aureus ATCC BAA-1556 after 24 hrs in presence of fetal bovine serum by microtiter plate method. The format is functional.
The subject of series [13] is Staphylococcus aureus. The series can be described thus: Antibacterial activity against methicillin resistant Staphylococcus aureus ATCC BAA-1556 incubated for 24 hrs. The format is functional.
In series [14] the test system is Escherichia coli. Kind of series: Antibacterial activity against Escherichia coli ATCC 25922 incubated for 24 hrs. The format is functional.
Series [15] relates to Klebsiella pneumoniae. Kind of series: Antibacterial activity against carbapenem-resistant Klebsiella pneumoniae ATCC BAA-2470 incubated for 24 hrs by microtiter plate method. Type of series: functional.
The subject of series [16] is Escherichia coli. Kind of series: Bactericidal activity against Escherichia coli ATCC BAA-2452 assessed as reduction of bacterial growth at MIC by counting formed colonies. Type of series: functional, organism-based. As to conditions: time <= 4.0 hrs, TDE = time-dependent effect.
The subject of series [17] is Staphylococcus aureus. Kind of series: Antibacterial activity against methicillin resistant Staphylococcus aureus ATCC BAA-1556 after 24 hrs in presence of 4.5 mM of KCl by microtiter plate method. Type of series: functional.
The test system of series [18] is Pseudomonas aeruginosa. The series can be described thus: Antibacterial activity against imipenem resistant Pseudomonas aeruginosa ATCC BAA-1744 incubated for 24 hrs by microtiter plate method. Type of series: functional.
For series [19], the system named is Pseudomonas aeruginosa. The series can be described thus: Antibacterial activity against Pseudomonas aeruginosa ATCC 10145 incubated for 24 hrs by microtiter plate method. Type of series: functional.
Series [20] relates to Staphylococcus aureus. Kind of series: Antibacterial activity against methicillin resistant Staphylococcus aureus ATCC BAA-1556 after 24 hrs in presence of 6 mM of NH4Cl by microtiter plate method. The format is functional.
In series [21] the test system is Staphylococcus aureus. Kind of series: Bactericidal activity against methicillin resistant Staphylococcus aureus ATCC BAA-1556 assessed as time required for complete reduction of bacterial growth at 4 times MIC by counting formed colonies. Type of series: functional.
For series [22], the system named is Escherichia coli. The series can be described thus: Bactericidal activity against Escherichia coli ATCC BAA-2452 assessed as reduction of bacterial growth at 4 times MIC by counting formed colonies. Type of series: functional, organism-based. To be noted: time <= 4.0 hrs, TDE = time-dependent effect.
The subject of series [23] is Klebsiella pneumoniae. Kind of series: Antibacterial activity against Klebsiella pneumoniae ATCC 13883 […] incubated for 24 hrs by microtiter plate method. Type of series: functional.
Series [24] relates to Staphylococcus aureus. The series can be described thus: Antibacterial activity against methicillin resistant Staphylococcus aureus ATCC BAA-1556 after 24 hrs in presence of 1 mM of by microtiter plate method. Type of series: functional.
The test system of series [25] is Staphylococcus aureus. Kind of series: Antibacterial activity against methicillin resistant Staphylococcus aureus ATCC BAA-1556 after 24 hrs in presence of 150 mM of NaCl by microtiter plate method. The format is functional.
Series [26] deals with Escherichia coli. Kind of series: Antibacterial activity against Escherichia coli ATCC 25922 assessed as reduction in microbial growth after 24 hrs in presence of 6 mM of NH4Cl at by microtiter plate method. Type of series: functional.
For series [27], the system named is Escherichia coli. The series can be described thus: Antibacterial activity against Escherichia coli ATCC 25922 after 24 hrs in presence of 4.5 mM of KCl at by microtiter plate method. Type of series: functional.

In brackets after ≈: the same amount, converted by molar mass. Activity calls are given as the source filed them. Bounds are passed on as bounds.

`N=C(N)NCCC[C@@H]1NC(=O)[C@H](CCCNC(=N)N)NC(=O)[C@H](C(c2ccccc2)c2ccccc2)NC(=O)[C@H](C(c2ccccc2)c2ccccc2)NC(=O)[C@H](CCCNC(=N)N)NC(=O)[C@H](CCCNC(=N)N)NC(=O)[C@H](C(c2ccccc2)c2ccccc2)NC1=O` (stereo in doubt; 17C): the MIC in the series on Pseudomonas aeruginosa [1] (24 h) was over 100 µg/mL; with Staphylococcus aureus [2] (24 h), 12.5 µg/mL (≈ 9.66 µM). For the same molecule, the HC50 in the series on Erythrocyte turned out to be 145 µg/mL.
In the case of `N=C(N)NCCC[C@@H]1NC(=O)[C@H](CCCNC(=N)N)NC(=O)[C@H](Cc2ccc3ccccc3c2)NC(=O)[C@H](Cc2ccc3ccccc3c2)NC(=O)[C@H](CCCNC(=N)N)NC(=O)[C@H](CCCNC(=N)N)NC(=O)[C@H](Cc2ccc3ccccc3c2)NC1=O` (stereo in doubt; 19C), the MIC in the series with Staphylococcus aureus [3] came out at 6.2 µg/mL (≈ 5.1 µM); in the series on Escherichia coli [4], 50 µg/mL (≈ 41.1 µM); against Pseudomonas aeruginosa [1] (24 h) it was 50 µg/mL (≈ 41.1 µM); with Staphylococcus aureus [2], 6.2 µg/mL (≈ 5.1 µM). The HC50 in the series on Erythrocyte was 110 µg/mL.
On to `O=C(O)c1cn(C2CC2)c2cc(N3CCNCC3)c(F)cc2c1=O` [CIPROFLOXACIN], for which the outcome in the series on Staphylococcus aureus [5] and in the series on Staphylococcus aureus [21] was Active. Also, the Activity result in the series on Staphylococcus aureus [6], with Staphylococcus aureus [10], with Escherichia coli [16] and in the series on Escherichia coli [22] was “Tde” throughout. Also, the MIC against Acinetobacter baumannii is 0.7 µg/mL (≈ 2.11 µM); with Staphylococcus aureus [7], 1.5 µg/mL; with Escherichia coli [8] it was 0.3 µg/mL; with Escherichia coli [9], 0.3 µg/mL; in the series on Staphylococcus aureus [3] (Staphylococcus aureus, ATCC 29213, read-out: MIC), 1.5 µg/mL (≈ 4.53 µM); with Escherichia coli [11] it was 0.3 µg/mL. For the same molecule, the MIC was 1.5 µg/mL with Staphylococcus aureus [12]; 0.7 µg/mL (≈ 2.11 µM) in the series with Klebsiella pneumoniae [15]; 1.5 µg/mL in the series with Staphylococcus aureus [17]; 0.7 µg/mL (≈ 2.11 µM) with Pseudomonas aeruginosa [18]; 0.7 µg/mL (≈ 2.11 µM) in the series on Pseudomonas aeruginosa [1] (Pseudomonas aeruginosa, ATCC 27883, read-out: MIC); 0.7 µg/mL (≈ 2.11 µM) with Pseudomonas aeruginosa [19]. In addition, the MIC with Staphylococcus aureus [20] was 0.7 µg/mL; against Klebsiella pneumoniae [23], 1.5 µg/mL (≈ 4.53 µM); in the series with Staphylococcus aureus [24] it was 1.5 µg/mL; in the series with Staphylococcus aureus [25], 1.5 µg/mL; with Escherichia coli [26] it was 0.3 µg/mL; with Escherichia coli [27], 0.3 µg/mL. In the series with Staphylococcus aureus [2] (Staphylococcus aureus, ATCC BAA-1556, 24 h, read-out: MIC), the MIC amounted to 3.1 µg/mL (≈ 9.36 µM). Also, the MBC against Staphylococcus aureus [13] was determined as 50 µg/mL (≈ 151 µM); in the series with Escherichia coli [14], 12.5 µg/mL (≈ 37.7 µM).

As a reminder, the MIC is the smallest concentration in the dilution series that meets the test's criterion for growth inhibition. As usually defined, the HC50 is the concentration that lyses half of the red blood cells. As a reminder, the MBC is the smallest concentration meeting the test's criterion for killing. A low value points to greater bactericidal potency.
